Data published in paper PMC6627331, “Identification of Small Molecule Inhibitors of Staphylococcus aureus RnpA” (Antibiotics, 2019).
Values after ≈ are worked out from the molar mass of the structure shown. Where two headings read alike, the source gives them in different places.

Tests used:
[1] = target: T1, S. aureus RNase P (RnpA + rnpB) (Staphylococcus aureus, UniProt P0A0H5); test: RnpA-dependent RNase P in vitro ptRNA^Tyr processing assay; type: biochemical; conditions: in vitro ptRNA^Tyr processing
T1 construct: hexahistidine (His6) (N); made in house; host or cells: E. coli BL21 (DE3), plasmid pEXP5-nt
T1 sequence (P0A0H5 1-117): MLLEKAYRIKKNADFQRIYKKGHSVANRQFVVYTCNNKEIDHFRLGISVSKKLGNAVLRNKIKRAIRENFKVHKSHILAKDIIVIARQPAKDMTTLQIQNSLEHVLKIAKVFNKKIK
Description: S. aureus RNase P activity assays were performed according to conditions described previously. Briefly, ptRNA^Tyr and rnpB RNA species were first denatured by heating to 95 °C for 5 min then slow cooled to room temperature. RNase P was reconstituted by mixing an equal molar ratio of rnpB and RnpA for 15 min at 37 °C. Precursor tRNA processing inhibition reactions were performed by mixing 1.25 pmol of reconstituted RNase P (RnpA + rnpB) with an equal volume of 2× low salt buffer (50 mM Tris-HCl pH 8.0, 5 mM MgCl2) in the presence of DMSO (negative control) or the indicated compound (≤500 µM) and incubated for 5 min at 37 °C. 5 pmol ptRNA^Tyr was added and the mixture was incubated at 37 °C 15 min. Reactions were stopped by adding 2× RNA loading dye and heating at 65 °C for 10 min. Each sample was electrophoresed in a 7 M urea/8% polyacrylamide gel then stained with ethidium bromide. The Biorad EZ Gel Doc imaging system was used to visualize the RNA and relative abundance of the mature tRNA^Tyr band (% processing) in the negative control or in samples containing the indicated compounds and analyzed using Biorad Image Lab densitometry software. The inhibitory activity of the indicated compounds were calculated as a % inhibition using the following equation: […].
To assess IC50, % RNase P processing inhibition was plotted against compound concentration and a linear best fit equation was generated to calculate the IC50.

[2] = target: T2, S. aureus RnpA (Staphylococcus aureus, UniProt P0A0H5); test: RnpA-mediated in vitro spa mRNA degradation assay; type: biochemical
T2 construct: hexahistidine (His6) (N); made in house; host or cells: E. coli BL21 (DE3), plasmid pEXP5-nt
T2 sequence (P0A0H5 1-117): T1 sequence (P0A0H5 1-117)
Description: RnpA-mediated RNA degradation assays were performed as previously described. Briefly, 1 pmol of spa mRNA was incubated with 5 pmol RnpA at 37 °C for 30 min in reaction buffer (50 mM Tris-HCl pH 8.0, 2 mM NaCl, 2 mM MgCl2) in the absence or presence of the indicated compound (≤500 µM). The inhibitory effects of the test compounds were calculated using Biorad ImageLab densitometry software to measure the signal intensity of the spa band in the negative control (spa alone), positive control (RnpA + spa + DMSO), and experimental samples (RnpA + spa + test compound) separated on a 1.2% formaldehyde-agarose gel. Background signal from the positive control sample sometimes resulted due to incomplete degradation of transcripts. Thus, the signal intensity of the positive control was taken into account when calculating the percent inhibition. The raw signals from the positive (+RnpA) and negative (-RnpA) controls were converted into percentage, by normalizing the positive control (+RnpA) signal to 0% RnpA inhibition and the negative control (-RnpA) to 100% RnpA inhibition. Similarly, the raw signals from the test compounds were reported as percent RnpA inhibition using the following equation: [(experimental−positive control)/(negative control−positive control)] × 100. […] To assess IC50, % RnpA degradation inhibition was plotted against compound concentration; a linear best fit equation was generated and utilized to calculate the IC50.

[3] = test system: S. aureus UAMS-1; test: Minimum inhibitory concentration (MIC) testing; type: cell-based, Staphylococcus aureus
Description: Minimum inhibitory concentration (MIC) testing was performed using to Clinical & Laboratory Standards Institute (CLSI) guidelines. Accordingly, individual wells of a 96-well microtiter plate were inoculated with 10^4 colony forming units (CFU) of S. aureus UAMS-1 containing two-fold increasing concentrations (0 to 256 μg·mL^−1) of the indicated antibiotic or putative RnpA inhibitor compound, and incubated at 37 °C for 16 h in MHB. The MIC was defined as the lowest concentration of compound in which there was no visible bacterial growth in the well.

[4] = test system: HepG2 cells; test: MTT human cell cytotoxicity testing; type: cell-based; conditions: SAR figures; 4× MIC exposure for 24 h
Description: Human HepG2 hepatocytes were seeded in individual wells of a 96-well cell-culture treated microtiter plate at a concentration of 1 × 10^5 cells per well and incubated in Dulbecco’s Modified Eagle Medium (DMEM) supplemented with 10% fetal bovine serum at 37 °C with 5% carbon dioxide overnight. Cells were then treated with DMSO (negative control) or the indicated agent for 24 h. MTT Cell Proliferation Assay Kits were used to assess viability according to the manufacturer’s recommendations (American Type Culture Collection; Manassas, VA, USA).

[5] = test system: norA mRNA in S. aureus UAMS-1 cells; test: Cellular norA mRNA turnover (qRT-PCR after rifampin arrest); type: cell-based, Staphylococcus aureus; conditions: 0.5× MIC for 30 min, 5 min post-transcriptional arrest; for norA mRNA degradation: mock 99%
Description: S. aureus mRNA half-life determinations were performed as previously described. […] Rifampin (Sigma-Aldrich) was added to the culture at a final concentration of 200 μg·mL^−1 to inhibit de novo transcript synthesis. Half of the culture was immediately removed and combined with an equal volume of ice cold acetone:ethanol (1:1 v/v). The remaining culture was returned to the shaking 37 °C incubator for an additional 5 min and then subsequently combined with an equal volume of ice cold acetone:ethanol (1:1 v/v) and stored at −80 °C until processing, as described below.
For total bacterial RNA isolation, cell suspensions were thawed on ice, centrifuged at 3000 rpm for 10 min at 4 °C, the resulting cell pellets were resuspended in ice-cold TE buffer (10 mM Tris-HCl, pH 8.0, 1 mM EDTA), and transferred into a FastPrep bead beater tube containing 0.1 mm silica spheres (MP Biomedicals; Santa Ana, CA, USA). Mixtures were homogenized at 5 m·s^−1 for 20 s, rested on ice for 5 min, and then homogenized again at 4.5 m·s^−1 in a FastPrep-24 instrument. Cellular debris were collected by centrifugation at 13,000 rpm for 15 min at 4 °C, whereas bacterial RNA was isolated from the supernatant using Qiagen RNeasy Mini Kits and miRNeasy Mini Kits were used to isolate total bacterial RNA, following the manufacturer’s instructions. RNA quantity and quality were measured using a NanoDrop 2000 spectrophotometer (ThermoFisher Scientific). For qRT-PCR, 1 μg of total bacterial RNA was treated with 3 units of DNase I (Ambion; Carlsbad, CA, USA) for 1 h at 37 °C to remove any DNA contaminants. RNA cleanup was performed using the Qiagen RNeasy Mini Kit. Subsequently, the BioRad iScript cDNA Synthesis Kit (Hercules, CA, USA) was used to convert 200 ng of RNA into cDNA, which was amplified using the BioRad iQ SYBR Green Supermix per the manufacturer’s instructions and fluorescence was read on the Biorad CFX 96 Connect machine. Transcript levels were compared to the internal control 16S rRNA (ΔΔCt method), and plotted as a fold change compared to control. The following primer pairs were used in this study for qRT-PCR: norA forward—[…] and norA reverse-[…] CTAAG; -15 ptRNA^Tyr forward-[…] and tRNA^Tyr reverse-TGGTG […]; 16S rRNA forward-[…] and 16S rRNA reverse-[…].

[6] = test system: ptRNA^Tyr levels in S. aureus UAMS-1 cells; test: Cellular ptRNA^Tyr accumulation (qRT-PCR); type: cell-based, Staphylococcus aureus; conditions: 1× MIC; 30 min or 1 h
Description: ptRNA^Tyr cellular pools were measured, as previously described. […] The culture was immediately removed, combined with an equal volume of ice cold acetone:ethanol (1:1 v/v) and stored at −80 °C until processing, as described below.
For total bacterial RNA isolation, cell suspensions were thawed on ice, centrifuged at 3000 rpm for 10 min at 4 °C, the resulting cell pellets were resuspended in ice-cold TE buffer (10 mM Tris-HCl, pH 8.0, 1 mM EDTA), and transferred into a FastPrep bead beater tube containing 0.1 mm silica spheres (MP Biomedicals; Santa Ana, CA, USA). Mixtures were homogenized at 5 m·s^−1 for 20 s, rested on ice for 5 min, and then homogenized again at 4.5 m·s^−1 in a FastPrep-24 instrument. Cellular debris were collected by centrifugation at 13,000 rpm for 15 min at 4 °C, whereas bacterial RNA was isolated from the supernatant using Qiagen RNeasy Mini Kits and miRNeasy Mini Kits were used to isolate total bacterial RNA, following the manufacturer’s instructions. RNA quantity and quality were measured using a NanoDrop 2000 spectrophotometer (ThermoFisher Scientific). […] Subsequently, the BioRad iScript cDNA Synthesis Kit (Hercules, CA, USA) was used to convert 200 ng of RNA into cDNA, which was amplified using the BioRad iQ SYBR Green Supermix per the manufacturer’s instructions and fluorescence was read on the Biorad CFX 96 Connect machine. […]

[7] = test system: S. aureus RN4220 pML100::rnpA-KD; test: Cellular RnpA depletion hypersusceptibility growth curve; type: cell-based, Staphylococcus aureus; conditions: […] MIC JC2 or 0.5× MIC RNPA2000
Description: 100 μL of each culture was transferred to a 96 well flat bottom plate in duplicate and growth monitored by OD600 reading every 30 min over 8 h at 37 °C. Hypersusceptibility growth curves were averaged from two biological replicates in technical duplicate.

[8] = test system: S. aureus UAMS-1; test: Galleria mellonella model of S. aureus infection; type: in vivo; conditions: 10^4 CFU UAMS-1, single dose 100 mg·kg^−1 1 h post-infection, 16 h; DMSO 60%
Description: (§1) An overnight culture of S. aureus strain UAMS-1 was used to inoculate (1:100 dilution) 25 mL of fresh MH medium and growth at 37 °C on a rotary shaker at 225 rpm to exponential phase (~1 × 10^8 CFU mL^−1). Cultures were pelleted by centrifugation, washed with phosphate buffered saline (PBS), and re-suspended at ~1 × 10^7 CFU·mL^−1 in fresh PBS. G. mellonella larvae weighing 150–250 mg were inoculated with 5 µL of S. aureus into the last left proleg using a 10 µL Hamilton syringe. About 1 h after inoculation, one group of worms was treated with 2 µL DMSO as infected negative control; one group was treated with 2 µL JC2 compound at 100 mg/kg dose; another group was treated with 2 µL vancomycin at 100 mg/kg dose as standard-of-care comparison. Treatments were administered in the same manner as infection, except that each injection was in the next left proleg moving towards the head of the worm. […] In addition to the mock or compound treatment of infected larvae, a group of non-infected worm injected with DMSO or corresponding compounds were used to monitor the impact of physical trauma as well as observe toxicity associated with compound treatment.

[9] = test system: Galleria mellonella; test: Galleria mellonella single tolerated dose (uninfected worms); type: in vivo; conditions: single dose 100 mg·kg^−1, 16 h
Description: as §1

[10] = Staphylococcus aureus, UAMS1, 16 h, Table S1, mupirocin synergy screening initial hits, read-out: MIC
[11] = Staphylococcus aureus, UAMS1, SAR figures, S. aureus UAMS-1, read-out: MIC
[12] = SAR figures, read-out: pIC50 = processing IC50 (converted)

SMILES | IC50 ([1]; read-out: Processing IC50) | IC50 ([2]; read-out: Degradation IC50) | MIC [3, 10] | MIC [3, 11] | MTT = % HepG2 cell survival [4] | norA mRNA degradation [5] | IC50 [1, 12] | other results
CC1CCN(C(=O)Nc2cc(Cl)cc(Cl)c2)CC1 [JC1] | 210 µM | 110 µM | 1 µg/mL | 1 µg/mL (≈ 3.48 µM) | 63% | did not reduce cellular norA mRNA degradation | – | MIC ([3]; S. aureus UAMS-1, 16 h in MHB, listed as 9044791): 1 µg/mL (≈ 3.48 µM)
CCC1CCCCN1C(=O)Nc1cc(Cl)cc(Cl)c1 (stereo not drawn) [JC3] | 175 µM | 500 µM | 1 µg/mL | 1 µg/mL (≈ 3.32 µM) | 57.9% | did not reduce cellular norA mRNA degradation | – | effect on RnpA mRNA degradation activity (in words) [2]: no appreciable effect; MIC ([3]; S. aureus UAMS-1, 16 h in MHB, listed as 9044688): 1 µg/mL (≈ 3.32 µM)
CCC1CCCCN1C(=O)Nc1cccc(Cl)c1 (stereo not drawn) [JC3b] | ≤ 500 µM | ≤ 500 µM | – | 32 µg/mL (≈ 120 µM) | 82.8% | did not reduce cellular norA mRNA degradation | 500 µM | IC50 ([2]; SAR figures, read-out: dIC50 = degradation IC50): 350 µM
COc1ccc(NC(=O)c2c(NC(=O)C(F)(F)F)sc3c2CCCCC3)cc1 [JR6] | – | > 250 µM | – | 1 µg/mL (≈ 2.42 µM) | 53.3% | – | 22 µM | MIC ([3]; Staphylococcus aureus, UAMS1, 16 h, S. aureus UAMS-1, 16 h in MHB, read-out: MIC): 0.25 to 1 µg/mL (≈ 0.606 to 2.42 µM)
CC(C)c1ccc(OCC(=O)NNC(=S)NC(=O)c2ccco2)cc1 [RNPA2000, reference compound] | – | – | – | – | – | – | – | MIC ([3]; S. aureus UAMS-1, 16 h in MHB): 16 µg/mL (≈ 44.3 µM); cellular accumulation of precursor tRNA^Tyr in comparison to mock treated cells [6]: 2.31 fold; reduction of cellular norA mRNA degradation [5]: approximately 54%; growth of RnpA-depleted cells (RnpA-KD) versus vector cells [7]: hypersusceptibility
CN[C@H](CC(C)C)C(=O)N[C@H]1C(=O)N[C@@H](CC(N)=O)C(=O)N[C@H]2C(=O)N[C@H]3C(=O)N[C@H](C(=O)N[C@H](C(=O)O)c4cc(O)cc(O)c4-c4cc3ccc4O)[C@H](O)c3ccc(c(Cl)c3)Oc3cc2cc(c3O[C@@H]2O[C@H](CO)[C@@H](O)[C@H](O)[C@H]2O[C@H]2C[C@](C)(N)[C@H](O)[C@H](C)O2)Oc2ccc(cc2Cl)[C@H]1O [vancomycin, reference compound] | – | – | – | – | – | – | – | mortality rate of S. aureus infected worms [8]: 40%; mortality rate of uninfected worms [9]: 10%
